Data on one compound can be found in patent US20210332024A1, “MODULATORS OF PIN1 ACTIVITY AND USES THEREOF” (Yeda Research and Development Co. Ltd., priority 2019, published 2021).

One data set deals with GST-Pin1 (Homo sapiens, UniProt Q13526). Briefly: Pin1 substrate activity assay (chymotrypsin-coupled PPIase assay). The class given is biochemical. To be noted: pre-incubation 12 hours at 4° C. Here is the method: Inhibition of Pin1 isomerase activity was determined using the chymotrypsin-coupled PPIase assay, using GST-Pin1 and Suc-Ala-pSer-Pro-Phe-pNA (SEQ ID NO: 2) peptide substrate ([…]), according to procedures described by Yaffe [Science 1997, 278:1957-1960]. GST-Pin1 was pre-incubated with the indicated concentrations of compound for 12 hours at 4° C. in buffer containing 35 mM HEPES (pH 7.8), 0.2 mM DTT, and 0.1 mg/ml BSA (bovine serum albumin). Immediately before the assay was started, chymotrypsin (final concentration of 6 mg/ml), followed by the peptide substrate (Suc-Ala-pSer-Pro-Phe-pNA (SEQ ID NO: 2) peptide substrate, final concentration […]) was added. The apparent Ki value (under the tested conditions) obtained from the PPIase assay was derived from the Cheng-Prusoff equation: […]
Chain of GST-Pin1 (Q13526 whole entry): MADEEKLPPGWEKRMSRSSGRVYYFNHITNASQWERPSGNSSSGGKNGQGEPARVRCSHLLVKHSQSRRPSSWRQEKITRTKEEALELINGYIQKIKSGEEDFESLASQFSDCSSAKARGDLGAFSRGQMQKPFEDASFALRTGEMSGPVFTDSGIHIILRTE
wherein Km is the Michaelis constant for the used substrate, S is the initial concentration of the substrate in the assay, and IC50 is the half-minimal inhibitory concentration of the inhibitor.
Covalent labeling of Pin1 was confirmed to translate into enzyme inhibition via a fluorescence polarization (FP) competition assay using a FITC-labeled substrate mimetic peptide inhibitor, as well as a chymotrypsin-coupled PPIase assay, using procedures described in Wei et al. [Nat Med 2015, 21:457-466].

For another data set, the target named is T1, Pin1 in IMR32 cells (Homo sapiens, UniProt Q13526).
T1 construct: endogenous in cells; host or cells: IMR32
T1 sequence (Q13526 whole entry): as above
The experiment in a line: Live cell competition assay with Pin1-3-DTB pull-down, IMR32 cells. The class given is cell-based. To be noted: IMR32 cells. Here is the method: The indicated cells were treated with increasing concentrations of either DMSO, Pin1-3, or Pin1-3-AcA for 5 hours. Cells were harvested by scraping and washed twice with PBS before lysis with 50 mM HEPES (pH 7.4), 1 mM EDTA, 10% glycerol, 1 mM TCEP, 150 mM NaCl, 1 mM EDTA, 0.5% NP-40, and protease inhibitor tablet (Roche cat. #4693159001). After clarifying (14,000 rpm for 15 minutes), samples were treated with the indicated concentrations of Pin1-3-DTB at 4° C. for 1 hour. Lysates were then incubated with streptavidin agarose resin (Thermo Scientific, cat. #20349) for 1.5 hour at 4° C. Beads were washed four times with 500 μl of washing buffer (50 mM HEPES (pH 7.5), 10 mM NaCl, 1 mM EDTA, 10% glycerol), then pelleted by centrifugation and dried. The beads were boiled for 5 minutes at 95° C. in 2×LDS+10% β-mercaptoethanol. Proteins of interest were then assessed via Western blotting using the bolt system (Life Technologies).
The indicated cells were plated in 10 cm plates with 2.5 million cells per plate in 6 ml of medium. The day after plating, cells were treated with the indicated concentrations of candidate inhibitor for the indicated time points. The cells were then washed two times with cold phosphate buffer saline (1 ml per 10 cm plate) and collected by scraping with a cell scraper. […]

A short description of another data set: Acute toxic model. The format is in vivo, mice. To be noted: 10, 20 or 40 mg/kg intraperitoneally every day for two weeks. Here is the method:
Toxicity of Pin1-3 was then evaluated in an acute toxic model. Mice were injected with 10, 20 or 40 mg/kg Pin1-3 intraperitoneally every day for two weeks.

The subject of another data set is germinal centers. Briefly: Germinal center size after NP-OVA immunization. To be noted: IP 40 mg/kg on days 7 and 9 post immunization, day 11. The class given is in vivo, mice. Here is the method:
12 wild-type mice were immunized with OVA coupled to the hapten 4-hydroxy-3-nitrophenylacetyl (NP-OVA) precipitated in alum. The mice were injected with two doses of Pin1-3 (IP; 40 mg/kg) or vehicle on days 7 and 9 post immunization, and on day 11 the mice were sacrificed and germinal centers size was assessed in lymph nodes by flow cytometry.

In a further data set the test system is PDAC organoids. The experiment in a line: PDAC organoid growth. The format is cell-based, human. To be noted: treated for 7 days. Here is the method:
Pancreatic ductal adenocarcinoma (PDAC) cells (derived from a human patient) were treated with Pin1-3 for 3 days. PDAC organoids were treated with Pin1-3 for 7 days (day 7 to day 14).

Data set [1] concerns KPC mouse derived tumor cells. The experiment in a line: KPC orthotopic transplantation mouse model. The class given is in vivo, mice. To be noted: IP 20 or 40 mg/kg every day. Here is the method: 10^6 KPC (KrasLSL.G12D/+; p53R172H/+; PdxCretg/+) mouse derived tumor cells were transplanted into B6 mice pancreas (orthotopic transplantation). After 1 week of the transplantation, treatment of mice with Pin1-3 began. Mice were treated (IP) with Pin1-3 diluted solution (as a control), or 20 or 40 mg/kg every day. Tumor size was measured, and when the tumor size in control group reached 2 cm, mice were sacrificed to collect tumor tissue (n=4), and Kaplan-Meier survival analysis (n=8) was performed.

The target in data set [2] is cysteine targets throughout the proteome, MDA-MB-231 cells (Homo sapiens, UniProt Q13526). Briefly: rdTOP-ABPP profiling of reactive cysteines. To be noted: 5 μM, two biological replicates.
Chain of cysteine targets throughout the proteome, MDA-MB-231 cells (Homo sapiens, UniProt Q13526) (Q13526 whole entry): as above
Protocol: (§1) MDA-MB-231 cells were cultured at 37° C. under a 5% CO2 atmosphere in DMEM culture medium supplemented with 10% FBS and 1% PS. Cells were grown to 70% confluence and incubated with DMSO or 5 μM Pin1-3 for 2 hours with serum-free medium. Cells were harvested, lysed by sonication in ice-cold PBS containing 0.1% Triton™ X-100 and centrifuged at 100,000 g for 30 minutes to remove cell debris. Then protein concentrations were determined by BCA protein assay. Proteomes were normalized to 2 mg/ml in 1 ml for each sample. Each of the DMSO and Pin1-3 incubated proteomes was treated with 100 μM iodoacetamide alkyne for 1 hour at room temperature. […] Finally, the samples were prepared, analyzed on LC-MS/MS and quantified according to procedures described in Yang et al. [Anal Chem 2018, 90:9576-9582]. […] LC-MS/MS data was analyzed by ProLuCID™ algorithm (as described by Xu et al. [J Proteomics 2015, 129:16-24]) with static modification of cysteine (+57.0215 Da) and variable oxidation of methionine (+15.9949 Da). […] The ratios were quantified by CImage™ software [Weerapana et al., Nature 2010, 468, 790-795].
(§2) This variant of the isoTOP-ABPP technique enables the site-specific quantification of cysteine binding by label-free covalent inhibitors. […] After enrichment on beads, the peptides were isotopically derivatized by triplex reductive dimethylation, cleaved and analyzed via LC-MS/MS analysis.
For data set [3], the system named is cysteine targets throughout the proteome, MDA-MB-231 cells. The experiment in a line: rdTOP-ABPP profiling of reactive cysteines. To be noted: 5 μM.
Protocol: as §1, §2

Molecules are shown by their SMILES. pIC50: −log10 of the molar value.

In the case of `CC(C)(C)CN(C(=O)CCl)C1CCS(=O)(=O)C1` (centres unmarked) [Pin1-3, 2-chloro-N-(sulfolan-3-yl)-N-neopentylacetamide], at GST-Pin1, the negative logarithm of the IC50 (pIC50) is 6.99. In addition, the “Concentration of full engagement of Pin1” value on Pin1 in IMR32 cells was 1 µM. Besides, in “Acute toxic model”, the Adverse effects result was “No adverse effects”, the Post-mortem examination result is “no pathologies” and the Weight entry was “normal”. In the data set with germinal centers, the “Germinal centers size (FAS^Hi CD38^− GC cells, flow cytometry)” value was “significantly larger germinal centers”. Further, in the data set with PDAC organoids, the PDAC organoid growth result was “inhibited PDAC organoid growth in a dose-dependent manner”. Moreover, in data set [1], the KPC tumor growth result was “inhibited KPC tumor growth” and the “Survival (Kaplan-Meier)” value is “enhanced survival”. Besides, the “Competition ratio R, Cys113 of Pin1” value in data set [2] amounted to 15. For the same compound, the “Competition ratio R, all other identified cysteines” value in data set [3] was “below 2.5”.

A word on the pIC50: it is the negative decadic logarithm of the IC50, by convention in mol/L. Lower therefore signals a high IC50.
